Test: Attempted conversion of polymorph (II) to polymorph (I) by heating in water
Assay type: physicochemical
Details: 18 days at 90-100° C.
Description: An attempt was made to convert polymorph (II) to polymorph (I) by heating in water for an extended period of time.

For `O=C([O-])[O-].[La+3].[OH-]` [polymorph (II), lanthanum hydroxycarbonate], the “conversion of polymorph (II) to polymorph (I) (polymorph stability)” value was “No evidence of conversion”.
